In ChEMBL document CHEMBL1697781, “Assessment of the health effects of chemicals in humans: II. Construction of an adverse effects database for QSAR modeling” (Curr Drug Discov Technol, 2004):

Assays:
Settings in all cases: human; call rule not given here
Hepatotoxicity [1] = assay: FDA HLAED, gamma-glutamyl transferase (GGT) increase
Hepatotoxicity [2] = assay: FDA HLAED, serum glutamic oxaloacetic transaminase (SGOT) increase
Hepatotoxicity [3] = assay: FDA HLAED, serum glutamic pyruvic transaminase (SGPT) increase
Hepatotoxicity [4] = assay: FDA HLAED, liver enzyme composite activity
Hepatotoxicity [5] = assay: FDA HLAED, lactate dehydrogenase (LDH) increase
Hepatotoxicity [6] = assay: FDA HLAED, alkaline phosphatase increase
Throughout, for GGT Increase - Index Value: reference of the scale not given here.
Throughout, for LDH Increase - Index Value: reference of the scale not given here.

Cc1ccc(Cl)c(Nc2ccccc2C(=O)O)c1Cl [MECLOFENAMIC ACID]
GGT Increase - Activity Score (Hepatotoxicity [1]): Inactive
GGT Increase - Index Value (Hepatotoxicity [1]): 0
GGT Increase - Number of Reports (Hepatotoxicity [1]): < 4
SGOT Increase - Activity Score (Hepatotoxicity [2]): Inactive
SGOT Increase - Index Value (Hepatotoxicity [2]): 0
SGOT Increase - Number of Reports (Hepatotoxicity [2]): < 4
SGPT Increase - Activity Score (Hepatotoxicity [3]): Inactive
SGPT Increase - Index Value (Hepatotoxicity [3]): 0
SGPT Increase - Number of Reports (Hepatotoxicity [3]): < 4
Composite Activity - Active (Hepatotoxicity [4]): 0
Composite Activity - Marginal (Hepatotoxicity [4]): 0
Composite Activity - Score (Hepatotoxicity [4]): Inactive
LDH Increase - Activity Score (Hepatotoxicity [5]): Inactive
LDH Increase - Index Value (Hepatotoxicity [5]): 0
LDH Increase - Number of Reports (Hepatotoxicity [5]): < 4
Alkaline Phosphatase Increase - Activity Score (Hepatotoxicity [6]): Inactive
Alkaline Phosphatase Increase - Index Value (Hepatotoxicity [6]): 0
Alkaline Phosphatase Increase - Number of Reports (Hepatotoxicity [6]): < 4

OC(c1cc(C(F)(F)F)nc2c(C(F)(F)F)cccc12)C1CCCCN1 (stereo not drawn) [MEFLOQUINE]
GGT Increase - Activity Score (Hepatotoxicity [1]): Active
GGT Increase - Index Value (Hepatotoxicity [1]): 18
GGT Increase - Number of Reports (Hepatotoxicity [1]): >= 4
SGOT Increase - Activity Score (Hepatotoxicity [2]): Active
SGOT Increase - Index Value (Hepatotoxicity [2]): 25.3
SGOT Increase - Number of Reports (Hepatotoxicity [2]): >= 4
SGPT Increase - Activity Score (Hepatotoxicity [3]): Active
SGPT Increase - Index Value (Hepatotoxicity [3]): 32.5
SGPT Increase - Number of Reports (Hepatotoxicity [3]): >= 4
Composite Activity - Active (Hepatotoxicity [4]): 3
Composite Activity - Marginal (Hepatotoxicity [4]): 0
Composite Activity - Score (Hepatotoxicity [4]): Active
LDH Increase - Activity Score (Hepatotoxicity [5]): Inactive
LDH Increase - Index Value (Hepatotoxicity [5]): 0
LDH Increase - Number of Reports (Hepatotoxicity [5]): < 4
Alkaline Phosphatase Increase - Activity Score (Hepatotoxicity [6]): Inactive
Alkaline Phosphatase Increase - Index Value (Hepatotoxicity [6]): 7.2
Alkaline Phosphatase Increase - Number of Reports (Hepatotoxicity [6]): < 4

C[C@@H](O)[C@H]1C(=O)N2C(C(=O)O)=C(S[C@@H]3CN[C@H](C(=O)N(C)C)C3)[C@H](C)[C@H]12 [MEROPENEM]
GGT Increase - Activity Score (Hepatotoxicity [1]): Inactive
GGT Increase - Index Value (Hepatotoxicity [1]): 0
GGT Increase - Number of Reports (Hepatotoxicity [1]): < 4
SGOT Increase - Activity Score (Hepatotoxicity [2]): Active
SGOT Increase - Index Value (Hepatotoxicity [2]): 50.8
SGOT Increase - Number of Reports (Hepatotoxicity [2]): < 4
SGPT Increase - Activity Score (Hepatotoxicity [3]): Active
SGPT Increase - Index Value (Hepatotoxicity [3]): 50.8
SGPT Increase - Number of Reports (Hepatotoxicity [3]): < 4
Composite Activity - Active (Hepatotoxicity [4]): 2
Composite Activity - Marginal (Hepatotoxicity [4]): 1
Composite Activity - Score (Hepatotoxicity [4]): Active
LDH Increase - Activity Score (Hepatotoxicity [5]): Marginally Active
LDH Increase - Index Value (Hepatotoxicity [5]): 33.8
LDH Increase - Number of Reports (Hepatotoxicity [5]): < 4
Alkaline Phosphatase Increase - Activity Score (Hepatotoxicity [6]): Inactive
Alkaline Phosphatase Increase - Index Value (Hepatotoxicity [6]): 0
Alkaline Phosphatase Increase - Number of Reports (Hepatotoxicity [6]): < 4

Nc1ccc(O)c(C(=O)O)c1 [MESALAMINE]
GGT Increase - Activity Score (Hepatotoxicity [1]): Inactive
GGT Increase - Index Value (Hepatotoxicity [1]): 1.5
GGT Increase - Number of Reports (Hepatotoxicity [1]): >= 4
SGOT Increase - Activity Score (Hepatotoxicity [2]): Inactive
SGOT Increase - Index Value (Hepatotoxicity [2]): 2.2
SGOT Increase - Number of Reports (Hepatotoxicity [2]): >= 4
SGPT Increase - Activity Score (Hepatotoxicity [3]): Inactive
SGPT Increase - Index Value (Hepatotoxicity [3]): 1.8
SGPT Increase - Number of Reports (Hepatotoxicity [3]): >= 4
Composite Activity - Active (Hepatotoxicity [4]): 0
Composite Activity - Marginal (Hepatotoxicity [4]): 0
Composite Activity - Score (Hepatotoxicity [4]): Inactive
LDH Increase - Activity Score (Hepatotoxicity [5]): Inactive
LDH Increase - Index Value (Hepatotoxicity [5]): 1.1
LDH Increase - Number of Reports (Hepatotoxicity [5]): >= 4
Alkaline Phosphatase Increase - Activity Score (Hepatotoxicity [6]): Inactive
Alkaline Phosphatase Increase - Index Value (Hepatotoxicity [6]): 1.3
Alkaline Phosphatase Increase - Number of Reports (Hepatotoxicity [6]): >= 4

O=S(=O)([O-])CCS.[Na+] [MESNA]
GGT Increase - Activity Score (Hepatotoxicity [1]): Inactive
GGT Increase - Index Value (Hepatotoxicity [1]): 0
GGT Increase - Number of Reports (Hepatotoxicity [1]): < 4
SGOT Increase - Activity Score (Hepatotoxicity [2]): Inactive
SGOT Increase - Index Value (Hepatotoxicity [2]): 5
SGOT Increase - Number of Reports (Hepatotoxicity [2]): < 4
SGPT Increase - Activity Score (Hepatotoxicity [3]): Inactive
SGPT Increase - Index Value (Hepatotoxicity [3]): 0
SGPT Increase - Number of Reports (Hepatotoxicity [3]): < 4
Composite Activity - Active (Hepatotoxicity [4]): 0
Composite Activity - Marginal (Hepatotoxicity [4]): 0
Composite Activity - Score (Hepatotoxicity [4]): Inactive
LDH Increase - Activity Score (Hepatotoxicity [5]): Inactive
LDH Increase - Index Value (Hepatotoxicity [5]): 5
LDH Increase - Number of Reports (Hepatotoxicity [5]): < 4
Alkaline Phosphatase Increase - Activity Score (Hepatotoxicity [6]): Inactive
Alkaline Phosphatase Increase - Index Value (Hepatotoxicity [6]): 0
Alkaline Phosphatase Increase - Number of Reports (Hepatotoxicity [6]): < 4

CN(C)C(=N)N=C(N)N [METFORMIN]
GGT Increase - Activity Score (Hepatotoxicity [1]): Inactive
GGT Increase - Index Value (Hepatotoxicity [1]): 0
GGT Increase - Number of Reports (Hepatotoxicity [1]): < 4
SGOT Increase - Activity Score (Hepatotoxicity [2]): Inactive
SGOT Increase - Index Value (Hepatotoxicity [2]): 0
SGOT Increase - Number of Reports (Hepatotoxicity [2]): < 4
SGPT Increase - Activity Score (Hepatotoxicity [3]): Inactive
SGPT Increase - Index Value (Hepatotoxicity [3]): 0
SGPT Increase - Number of Reports (Hepatotoxicity [3]): < 4
Composite Activity - Active (Hepatotoxicity [4]; Liver): 0
Composite Activity - Marginal (Hepatotoxicity [4]; Liver): 0
Composite Activity - Score (Hepatotoxicity [4]; Liver): Inactive
LDH Increase - Activity Score (Hepatotoxicity [5]): Inactive
LDH Increase - Index Value (Hepatotoxicity [5]): 0
LDH Increase - Number of Reports (Hepatotoxicity [5]): < 4
Alkaline Phosphatase Increase - Activity Score (Hepatotoxicity [6]): Inactive
Alkaline Phosphatase Increase - Index Value (Hepatotoxicity [6]): 0
Alkaline Phosphatase Increase - Number of Reports (Hepatotoxicity [6]): < 4
